Test results from patent US4318916A, “Antibiotic PS-5 and derivatives having β-lactamase inhibitory activity and production thereof” (Sanraku-Ocean Co., Ltd., priority 1977, dated 1982).
In brackets after ≈: the same amount, converted by molar mass.

Experiments:
Assay type in all cases: cell-based
Serratia marcescens S-18 = assay: MIC by broth dilution (Table 13); conditions: S18, 20 h
Protocol: (§1) The MIC (minimum inhibitory concentration) values of the compound were determined on various pathogenic microorganisms including several resistant strains, utilizing the broth dilution method in BRAIN HEART INFUSION BROTH `Eiken` (EIKEN CHEMICAL CO., LTD.).
(§2) The results were read after incubation at 35° C. for 20 hours. The minimum inhibitory concentration (MIC) values means the lowest concentration unit of the tritylation product of the antibiotic PS-5 was no growth of the corresponding microorganism was observed under the above described conditions. As the control antibiotics,the solutions of ampicillin and cephaloridine were prepared in BRAIN HEART INFUSION BROTH `Eiken` (pH 7.0) at a concentration of 100 μg/ml and treated same as the test compound of the present invention.

[1] = system: Streptococcus pyogenes NY-5; assay: MIC by broth dilution (Table 13); conditions: NY5, 20 h; Streptococcus pyogenes NY-5; read-out: MIC
Protocol: as §1, §2

Proteus rettgeri P-7 = assay: MIC by broth dilution (Table 13); conditions: Providencia rettgeri, P7, 20 h; Proteus rettgeri P-7; read-out: MIC
Protocol: as §1, §2

[2] = system: Alcaligenes faecalis B-326; assay: MIC by broth dilution (Table 13); conditions: Alcaligenes faecalis, B326, 20 h
Protocol: as §1, §2

[3] = system: Enterobacter cloacae E-16; assay: MIC by broth dilution (Table 13); conditions: E16, 20 h
Protocol: as §1, §2

Proteus mirabilis P-6 = assay: MIC by broth dilution (Table 13); conditions: Proteus mirabilis, P6, 20 h
Protocol: as §1, §2

Sarcina lutea S-19 = assay: MIC by broth dilution (Table 13); conditions: Micrococcus luteus, S19, 20 h; Sarcina lutea S-19; read-out: MIC
Protocol: as §1, §2

[4] = system: Staphylococcus aureus Smith; assay: MIC by broth dilution (Table 13); conditions: 20 h; Staphylococcus aureus Smith; read-out: MIC
Protocol: as §1, §2

Enterobacter sp. E-8 = assay: MIC by broth dilution (Table 13); conditions: SP.E8, 20 h; Enterobacter sp. E-8; read-out: MIC
Protocol: as §1, §2

[5] = system: Enterobacter aerogenes E-19; assay: MIC by broth dilution (Table 13); conditions: Klebsiella aerogenes, E19, 20 h
Protocol: as §1, §2

[6] = system: Diplococcus pneumoniae Type III; assay: MIC by broth dilution (Table 13); conditions: Streptococcus pneumoniae, 20 h; Diplococcus pneumoniae Type III; read-out: MIC
Protocol: as §1, §2

[7] = system: Pseudomonas aeruginosa P-1; assay: MIC by broth dilution (Table 13); conditions: P1, 20 h; Pseudomonas aeruginosa P-1; read-out: MIC
Protocol: as §1, §2

Citrobacter freundii E-9 = assay: MIC by broth dilution (Table 13); conditions: E9, 20 h; Citrobacter freundii E-9; read-out: MIC
Protocol: as §1, §2

[8] = system: Staphylococcus aureus FDA 209p; assay: MIC by broth dilution (Table 13); conditions: FDA209P, 20 h; Staphylococcus aureus FDA 209p; read-out: MIC
Protocol: as §1, §2

Proteus vulgaris P-5 [9] = assay: MIC by broth dilution (Table 13); conditions: P5, 20 h; Proteus vulgaris P-5; read-out: MIC
Protocol: as §1, §2

Escherichia coli K12 = assay: MIC by broth dilution (Table 13); conditions: 20 h
Protocol: as §1, §2

[10] = system: Klebsiella pneumoniae K-2; assay: MIC by broth dilution (Table 13); conditions: K2, 20 h; Klebsiella pneumoniae K-2; read-out: MIC
Protocol: as §1, §2

Proteus vulgaris P-5 [11] = assay: Potentiation disc assay with cephaloridine (Table 10); conditions: Proteus vulgaris P-5; for Inhibition zone With CER: 50 μg/ml cephaloridine in agar
Protocol: (A) Ten milliliters of molten nutrient agar containing 50 μg/ml of penicillin G or cephaloridine, 0.8% of Kyokuto Nutrient Broth Powder and 1.0% of Difco Bacto-Agar (pH 7.0) were seeded with the beta-lactam-resistant, beta-lactamase-producing microorganisms indicated in Tables 9 and 10, and poured in a 9-cm Petri dish to provide the bio-assay agar plate. On this assay plate, 8-mm pulp discs containing 25 μl each of antibiotic PS-5 solutions at the indicated concentrations were placed and incubated at 35° C. for 18 hours before reading the inhibition zones. The control assay plate was similarly prepared without penicillin G nor cephaloridine. As reference antibiotics, penicillin G, ampicillin, oxacillin and cefazolin were disc-assayed under the same conditions.

CC1(C)S[C@@H]2[C@H](NC(=O)[C@H](N)c3ccccc3)C(=O)N2[C@H]1C(=O)O [Ampicillin, ampicillin]
MIC (Serratia marcescens S-18): 50 µg/mL (≈ 143 µM) | MIC [1]: 0.02 µg/mL (≈ 0.0572 µM) | MIC (Proteus rettgeri P-7): 50 µg/mL (≈ 143 µM) | MIC [2]: 6.25 µg/mL (≈ 17.9 µM) | MIC [3]: > 100 µg/mL | MIC (Proteus mirabilis P-6): 3.13 µg/mL (≈ 8.96 µM) | MIC (Sarcina lutea S-19): 0.05 µg/mL (≈ 0.143 µM) | MIC [4]: 0.2 µg/mL (≈ 0.572 µM) | MIC (Enterobacter sp. E-8): > 100 µg/mL | MIC [5]: > 100 µg/mL | MIC [6]: 0.04 µg/mL (≈ 0.114 µM) | MIC [7]: 50 µg/mL (≈ 143 µM) | MIC (Citrobacter freundii E-9): > 100 µg/mL | MIC [8]: 0.2 µg/mL (≈ 0.572 µM) | MIC (Proteus vulgaris P-5 [9]): > 100 µg/mL | MIC (Escherichia coli K12): 3.13 µg/mL (≈ 8.96 µM) | MIC [10]: > 100 µg/mL | zone of inhibition at 625 µg/mL (Proteus vulgaris P-5 [11]; P5, 18 h, reference antibiotic 625 μg/ml, read-out: Inhibition zone Without CER): 0 mm | zone of inhibition at 2500 µg/mL (Proteus vulgaris P-5 [11]; P5, 18 h, reference antibiotic 2,500 μg/ml, read-out: Inhibition zone Without CER): 0 mm | zone of inhibition at 10000 µg/mL (Proteus vulgaris P-5 [11]; P5, 18 h, reference antibiotic 10,000 μg/ml, read-out: Inhibition zone Without CER): 14.7 mm | Potentiation of the antimicrobial activity of cephaloridine (Proteus vulgaris P-5 [11]; disc assay, Table 10): could not increase the antimicrobial activity of cephaloridine | Inhibition zone With CER (Proteus vulgaris P-5 [11]; reference antibiotic 625 μg/ml): 0 mm | Inhibition zone With CER (Proteus vulgaris P-5 [11]; reference antibiotic 2,500 μg/ml): 0 mm | Inhibition zone With CER (Proteus vulgaris P-5 [11]; reference antibiotic 10,000 μg/ml): 12.9 mm
